Measurements from patent US7772430B2, “Derivatives of arylsulfonamido-substituted hydroxamic acid as matrix metalloproteinases inhibitors” (Protera S.R.L., priority 2004, dated 2010).

What was measured:
[1] = Solubility in water; assay type: physicochemical; conditions: stated in words only
[2] = biological target: T1, Catalytic domain of MMP-12 (Homo sapiens, UniProt P39900); test: In vitro inhibition test, fluorogenic peptide substrate (Knight et al.); assay type: biochemical; conditions: 298 K, pH 7, 1% DMSO; stated in words only
T1 construct: Catalytic domain of MMP-12 was cloned, expressed and purified; made in house
T1 sequence (P39900 106-263 limits assumed): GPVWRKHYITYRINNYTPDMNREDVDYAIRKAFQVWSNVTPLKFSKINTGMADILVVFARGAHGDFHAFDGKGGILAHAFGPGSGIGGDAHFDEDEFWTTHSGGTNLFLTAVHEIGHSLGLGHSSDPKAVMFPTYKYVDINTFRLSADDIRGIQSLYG
Procedure: The compounds of the invention, prepared as above described, were tested in vitro according to the method reported by Knight et al. in FEBS Lett 1992, 296 (3):263.
Catalytic domain of MMP-12 was cloned, expressed and purified according to the procedure reported in Banci et al. Journal of Molecular Catalysis A: Chemical, 2003, Vol. 204-205, pp. 401-408). Preparation of catalytic domain of MMP-1 was performed as follows: proMMP-1 cDNA was cloned into the pET21 (Novagen) expression vector. The recombinant vector was transformed into Escherichia Coli BL21 cells. The bacteria were grown in 2 XYt media and incubated at 37° C. When the cells reached the exponential growth phase, the expression of the protein was induced by adding 0.5 mM of IPTG and the incubation was continued further for four hours. […]
The protein was maintained in presence of inhibitor for 5 min before the substrate was added. Subsequently, after addition of peptidic substrate, the increase of fluorescence intensity was measured vs. time (excitation 328 nm, emission 393 nm) using a Varian/Eclipse fluorimeter.
Matrix metalloproteinases cleave peptidic bond glycine-leucine separating coumarinic group from 2,4-dinitrophenol and so causing a high increase of fluorescence intensity under the conditions indicated above. […]

COc1ccc(S(=O)(=O)NC(CO)C(=O)NO)cc1 (centres unmarked) [Example 7, 3,N-dihydroxy-2-[(4-methoxy-benzenesulfonyl)amino]-propionamide]
solubility in water [1]: good solubility
ability to inhibit MMP-12 (from IC50 data) [2]: do not have the inhibition activity and selectivity of present compounds of formula (I)
